According to paper PMC7038240 (Antimicrobial Agents and Chemotherapy, 2020):
Where two headings read alike, the source gives them in different places.

What was measured:
[1] = test system: E. coli DH5α producing individual β-lactamases; test: Broth microdilution MIC in engineered strains (BLI fixed at 4 μg/ml); assay type: cell-based, Escherichia coli
Protocol: The spectrum of antibacterial activity of cefepime-taniborbactam and the breadth of inhibitory activity of this next-generation cyclic boronate BLI were assessed in 34 engineered E. coli strains each overproducing an individual β-lactamase and directly compared to those of the clinically approved agent ceftazidime-avibactam. In this manner, the antibacterial activity of the BL-BLI combinations relative to that of the partnered cephalosporins alone provided a quantitative measure of β-lactam potentiation that directly reflects the levels of inhibition of β-lactamase function achieved by addition of BLI. The BLI concentration was fixed at 4 μg/ml, as described in Materials and Methods.
The isogenic strains were used to establish a spectrum of inhibitory activity against 34 β-lactamases that were engineered into E. coli DH5α cells carrying chromosomal AmpC (ESC-1), a non-ESBL enzyme unable to hydrolyze these third- or fourth-generation cephalosporins. […]. The DNA fragments containing the promoter, the signal sequence, and each β-lactamase-coding gene were synthesized and cloned into pTwist Chlor High Copy in DH5α at Twist Bioscience. The individual expression plasmids along with their GenBank accession numbers are listed in Table S2 in the supplemental material and below. The protein sequences of β-lactamases were obtained from the Beta-Lactamase DataBase (www.bldb.eu) ([47]). Expression of the β-lactamases was confirmed by verifying decreased susceptibility to example test antibiotics that are known substrates of the enzymes. E. coli DH5α carrying pTU501, which expressed only the TEM-1 signal sequence from the bla promoter, was used as a control. The plasmid sequences are available through GenBank (Table S2).
The in vitro antibacterial activity of the β-lactams alone or in combination with the BLIs was determined in cation-adjusted Mueller-Hinton broth (CAMHB) microdilution assays according to CLSI recommendations ([51]). […]. The inocula for the broth microdilution assays were prepared by the broth culture method ([51]). […]

[2] = test system: P. aeruginosa clinical isolates; test: microbe, parasite or virus in culture; assay type: cell-based, Pseudomonas aeruginosa
Protocol: (§1) The antibacterial activity of the cephalosporins alone was included to ascertain the level of potentiation by the partnered BLI. BLIs were tested at a fixed concentration of 4 μg/ml in all combinations except cefepime-tazobactam, where tazobactam was fixed at a concentration of 8 μg/ml ([38]).
(§2) The in vitro antibacterial activity of the β-lactams alone or in combination with the BLIs was determined in cation-adjusted Mueller-Hinton broth (CAMHB) microdilution assays according to CLSI recommendations ([51]). […] The inocula for the broth microdilution assays were prepared by the broth culture method ([51]).

[3] = test system: E. cloacae; test: microbe, parasite or virus in culture; assay type: cell-based
Protocol: as §1, §2

[4] = test system: Enterobacterales clinical isolates; test: MIC distributions in panels of clinical isolates (MIC50, MIC90, % susceptible); assay type: cell-based
Protocol: as §1, §2

[5] = test system: cefepime-nonsusceptible Enterobacterales isolates; set-up: method as in earlier work; conditions: taniborbactam fixed at 4 μg/ml in combination; cited from earlier work
[6] = Escherichia coli, ACT-17 (class C)
[7] = Escherichia coli, ACT-C189 (P99 AmpC) (class C)
[8] = Escherichia coli, CMY-2 (class C)
[9] = Escherichia coli, CTX-M-2 (class A)
[10] = Escherichia coli, CTX-M-15 (class A)
[11] = Escherichia coli, GES-5 (class A)
[12] = Escherichia coli, GIM-1 (class B)
[13] = Escherichia coli, IMP-1 (class B)
[14] = Escherichia coli, KPC-2 (class A)
[15] = Escherichia coli, KPC-3(A177E/D179Y) (class A)
[16] = Escherichia coli, KPC-3(D179Y) (class A)
[17] = Escherichia coli, KPC-3(D179Y/T243M) (class A)
[18] = Escherichia coli, KPC-3(T243A) (class A)
[19] = Escherichia coli, KPC-3(V240G) (class A)
[20] = Escherichia coli, KPC-3 (class A)
[21] = Escherichia coli, NDM-1 (class B)
[22] = Escherichia coli, NDM-5 (class B)
[23] = Escherichia coli, NDM-7 (class B)
[24] = Escherichia coli, OXA-48 (class D)
[25] = Escherichia coli, OXA-162 (class D)
[26] = Escherichia coli, OXA-163 (class D)
[27] = Escherichia coli, OXA-181 (class D)
[28] = Escherichia coli, OXA-232 (class D)
[29] = Escherichia coli, PER-1 (class A)
[30] = Escherichia coli, PER-2 (class A)
[31] = Escherichia coli, SHV-5 (class A)
[32] = Escherichia coli, SPM-1 (class B)
[33] = Escherichia coli, TEM-10 (class A)
[34] = Escherichia coli, TEM-24 (class A)
[35] = Escherichia coli, TEM-72 (class A)
[36] = Escherichia coli, VEB-9 (class A)
[37] = Escherichia coli, VIM-1 (class B)
[38] = Escherichia coli, VIM-2 (class B)
[39] = Escherichia coli, VIM-4 (class B)
[40] = Escherichia coli, Vector control
[41] = Wild-type, basal level Class C and OprD downregulation with RND efflux upregulation (n=14)
[42] = Enterobacter cloacae, strain 20, p99 AmpC/CTX-M-27/SHV-12/ACT-2/TEM-135, read-out: MIC
[43] = Enterobacter cloacae, strain 116723, p99 AmpC/TEM-1/CTX-M-3, read-out: MIC
[44] = Enterobacter cloacae, strain 138212, p99 AmpC/SHV-71/TEM-1, read-out: MIC
[45] = Enterobacter cloacae, strain 874381, CTX-M-15, read-out: MIC
[46] = Enterobacter cloacae, strain 875134, TEM-1/CTX-M-3/DHA-1, read-out: MIC
[47] = Enterobacter cloacae, strain 891849, TEM-1, read-out: MIC
[48] = Enterobacter cloacae, strain 920937, VIM-1, read-out: MIC
[49] = Enterobacter cloacae, strain 937223, SHV-12/CTX-M-9/ACT-7, read-out: MIC
[50] = Enterobacter cloacae, strain 938772, TEM-OSBL/CTX-M-15/ACT-30, read-out: MIC
[51] = Enterobacter cloacae, strain 976004, OXA-48, read-out: MIC
[52] = Enterobacter cloacae, strain 1249072, TEM-OSBL(b)/VIM-1, read-out: MIC
[53] = Enterobacter cloacae, strain 1365477, TEM-OSBL(b)/VIM-1, read-out: MIC

With `CC(C)(O/N=C(\C(=O)N[C@@H]1C(=O)N2C(C(=O)[O-])=C(C[n+]3ccccc3)CS[C@H]12)c1csc(N)n1)C(=O)O` [CAZ] the MIC [1, 6] was 8 µg/mL, the MIC [1, 7] was 256 µg/mL and the MIC [1, 8] was 512 µg/mL. The MIC [1, 9] was 32 µg/mL, the MIC [1, 10] was 128 µg/mL and the MIC [1, 11] was 64 µg/mL. For the same compound, the MIC [1, 12] was over 128 µg/mL, the MIC [1, 13] was 1020 µg/mL and the MIC [1, 14] was 64 µg/mL. The MIC [1, 15] was 1020 µg/mL, the MIC [1, 16] was 1020 µg/mL and the MIC [1, 17] was 1020 µg/mL. It also gave an MIC [1, 18] of 256 µg/mL, an MIC [1, 19] of 1020 µg/mL and an MIC [1, 20] of 512 µg/mL. The MIC [1, 21] was 1020 µg/mL, the MIC [1, 22] was over 1020 µg/mL and the MIC [1, 23] was over 1020 µg/mL. For the same compound, the MIC [1, 24] was 1 µg/mL, the MIC [1, 25] was 2 µg/mL and the MIC [1, 26] was 256 µg/mL. It also gave an MIC [1, 27] of 1 µg/mL, an MIC [1, 28] of 1 µg/mL and an MIC [1, 29] of 1020 µg/mL. It also gave an MIC [1, 30] of 1020 µg/mL, an MIC [1, 31] of 1020 µg/mL and an MIC [1, 32] of 1020 µg/mL. The MIC [1, 33] was 1020 µg/mL, the MIC [1, 34] was 1020 µg/mL and the MIC [1, 35] was 1020 µg/mL. It also gave an MIC [1, 36] of 1020 µg/mL, an MIC [1, 37] of 1020 µg/mL and an MIC [1, 38] of 128 µg/mL. It also gave an MIC [1, 39] of 256 µg/mL, an MIC [1, 40] of 0.25 µg/mL and an MIC ([1]; Vector control) of 0.5 µg/mL. For the same compound, the “% Susceptible isolates” value [2] was 0%, the “% Susceptible isolates” value ([2]; PDC variants (n = 10)) was 0% and the “% Susceptible isolates” value [2, 41] was 35.7%. For the same compound, the MIC [3] was 64 µg/mL, the MIC [3, 42] was at least 256 µg/mL and the MIC [3, 43] was 128 µg/mL. It also gave an MIC [3, 44] of 128 µg/mL, an MIC [3, 45] of at least 256 µg/mL and an MIC [3, 46] of 64 µg/mL. For the same compound, the MIC [3, 47] was 128 µg/mL, the MIC [3, 48] was at least 256 µg/mL and the MIC [3, 49] was at least 256 µg/mL. It also gave an MIC [3, 50] of 128 µg/mL, an MIC [3, 51] of 128 µg/mL and an MIC [3, 52] of at least 256 µg/mL. The MIC [3, 53] was at least 256 µg/mL, the “% Susceptible isolates” value ([4]; ESBL (n = 20)) was 15% and the “% Susceptible isolates” value ([4]; KPC (n = 20)) was 0%. The “% Susceptible isolates” value ([4]; MBL (n = 20)) was 0%, the “% Susceptible isolates” value ([4]; Mixed Class A and C (n = 22)) was 9.1% and the “% Susceptible isolates” value ([4]; OXA-48/48-like (n = 20)) was 15%.

Work on `CO/N=C(\C(=O)N[C@@H]1C(=O)N2C(C(=O)[O-])=C(C[N+]3(C)CCCC3)CS[C@H]12)c1csc(N)n1` [FEP] yielded an MIC [1, 6] of 4 µg/mL, an MIC [1, 7] of 8 µg/mL and an MIC [1, 8] of 2 µg/mL. The MIC [1, 9] was 128 µg/mL, the MIC [1, 10] was 128 µg/mL and the MIC [1, 11] was 4 µg/mL. For the same compound, the MIC [1, 12] was 4 µg/mL, the MIC [1, 13] was 64 µg/mL and the MIC [1, 14] was 64 µg/mL. For the same compound, the MIC [1, 15] was 16 µg/mL, the MIC [1, 16] was 32 µg/mL and the MIC [1, 17] was 16 µg/mL. For the same compound, the MIC [1, 18] was 64 µg/mL, the MIC [1, 19] was 256 µg/mL and the MIC [1, 20] was 128 µg/mL. For the same compound, the MIC [1, 21] was 256 µg/mL, the MIC [1, 22] was 512 µg/mL and the MIC [1, 23] was 512 µg/mL. It also gave an MIC [1, 24] of 2 µg/mL, an MIC [1, 25] of 8 µg/mL and an MIC [1, 26] of 128 µg/mL. The MIC [1, 27] was 2 µg/mL, the MIC [1, 28] was 2 µg/mL and the MIC [1, 29] was 512 µg/mL. It also gave an MIC [1, 30] of 256 µg/mL, an MIC [1, 31] of 128 µg/mL and an MIC [1, 32] of 128 µg/mL. The MIC [1, 33] was 8 µg/mL, the MIC [1, 34] was 2 µg/mL and the MIC [1, 35] was 32 µg/mL. It also gave an MIC [1, 36] of 128 µg/mL, an MIC [1, 37] of 128 µg/mL and an MIC [1, 38] of 16 µg/mL. The MIC [1, 39] was 32 µg/mL, the MIC [1, 40] was 0.12 µg/mL and the MIC90 [5] was over 128 µg/mL.

For `Cn1c(N)c(NC(=O)NCCN)c[n+]1CC1=C(C(=O)O)N2C(=O)[C@@H](NC(=O)/C(=N\OC(C)(C)C(=O)[O-])c3nsc(N)n3)[C@H]2SC1` [TOL], the “% Susceptible isolates” value ([2]; GES/KPC/VIM carbapenemase producing (n = 17)) was 0%, the “% Susceptible isolates” value ([2]; PDC variants (n = 10)) was 0% and the “% Susceptible isolates” value [2, 41] was 85.7%. It also gave an MIC [3, 42] of 32 µg/mL, an MIC [3, 43] of 32 µg/mL and an MIC [3, 44] of 32 µg/mL. It also gave an MIC ([3]; Enterobacter cloacae, strain 847426, KPC, read-out: MIC) of at least 256 µg/mL, an MIC [3, 45] of at least 256 µg/mL and an MIC [3, 46] of 64 µg/mL. For the same compound, the MIC [3, 47] was 32 µg/mL, the MIC [3, 48] was at least 256 µg/mL and the MIC [3, 49] was 32 µg/mL. For the same compound, the MIC [3, 50] was 128 µg/mL, the MIC [3, 51] was at least 256 µg/mL and the MIC [3, 52] was at least 256 µg/mL. For the same compound, the MIC [3, 53] was at least 256 µg/mL, the MIC ([3]; Enterobacter cloacae, strain CDC-0053, KPC-3/TEM-1, read-out: MIC) was 128 µg/mL and the MIC ([3]; Enterobacter cloacae, strain CDC-0163, KPC/CTX-M-1/ACT/MIR, read-out: MIC) was 128 µg/mL. The “% Susceptible isolates” value ([4]; ESBL (n = 20)) was 0%, the “% Susceptible isolates” value ([4]; KPC (n = 20)) was 0% and the “% Susceptible isolates” value ([4]; MBL (n = 20)) was 0%. The “% Susceptible isolates” value ([4]; Mixed Class A and C (n = 22)) was 0% and the “% Susceptible isolates” value ([4]; OXA-48/48-like (n = 20)) was 5%.
